Where two headings read alike, the source gives them in different places.

In the experiment the target is T1, VMAT2 (Rattus norvegicus, UniProt Q01827).
T1 construct: the VMAT2 present in isolated cerebral cortical vesicles; from tissue; host or cells: rat cerebral cortex, synaptic vesicles purified by differential centrifugation
Put plainly: VMAT2 functional assay ([3H]-dopamine uptake into isolated vesicles). The note with it: rat cortical vesicles, [3H]-dopamine 30 nM, 30 min pre-incubation, 15 min uptake, room temperature. The class given is biochemical. The protocol:
VMAT2 Functional Assay determines the interaction between the compounds of the present invention and the VMAT2 present in isolated cerebral cortical vesicles.
Transporter Source: Rat cortical vesicles
Buffers: 100 mM potassium tartrate, 1.7 mM ascorbic acid, 0.05 mM EGTA, 0.1 mM EDTA, 2 mM Magnesium-ATP and 25 mM HEPES.
RadioLigand: • Monoamine: [3H]-Dopamine • Final ligand concentration: 30 nM
Vmax (transport rate): 1800 fmol/mg tissue/min
Positive reference-control: • Reserpine • Concentration: 10 μM
(1) Rat cortical vesicles were purified using differential centrifugation, and the vesicles obtained were diluted in the assay buffer and pre-incubated with the positive-reference-control, the comparative sample or a compound of the invention for 30 minutes at room temperature.
(2) Uptake begins with the addition of [3H]-dopamine and the mixture is allowed to incubate for 15 minutes at room temperature.
(3) After that time, the reaction was stopped by vacuum filtration, and the amount of radioactivity of the radiolabeled [3H]-dopamine trapped onto the filters was determined.
(4) The radioactivity of the [3H]-dopamine trapped was determined using liquid scintillation spectrophotometry (Beckman and Perkin Elmer). The amount of radioactivity obtained with the comparative sample or a compound of the invention was compared with the amount of radioactivity obtained with the positive-reference control (reserpine).
The IC50 value is converted to an absolute inhibition constant Ki using the Cheng-Prusoff equation. Two separate independent experiments were performed.

[1] abbreviates: Experiment 1, read-out: IC50 (nM) Experiment 1.

T1 sequence (Q01827 whole entry): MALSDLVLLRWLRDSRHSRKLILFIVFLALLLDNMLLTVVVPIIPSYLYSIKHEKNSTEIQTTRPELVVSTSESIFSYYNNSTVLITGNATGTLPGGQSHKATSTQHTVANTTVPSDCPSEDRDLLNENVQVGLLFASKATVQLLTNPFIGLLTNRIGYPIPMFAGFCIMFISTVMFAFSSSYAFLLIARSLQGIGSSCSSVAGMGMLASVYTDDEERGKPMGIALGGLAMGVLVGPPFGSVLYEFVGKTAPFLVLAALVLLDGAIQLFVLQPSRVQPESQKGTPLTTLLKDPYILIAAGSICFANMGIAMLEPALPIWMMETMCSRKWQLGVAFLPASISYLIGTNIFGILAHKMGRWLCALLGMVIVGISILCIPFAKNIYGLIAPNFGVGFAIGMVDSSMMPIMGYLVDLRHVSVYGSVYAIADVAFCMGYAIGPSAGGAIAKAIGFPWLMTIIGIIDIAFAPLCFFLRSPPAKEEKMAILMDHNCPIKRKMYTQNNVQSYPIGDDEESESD

The IC50 is the concentration needed to halve the response being measured. Regarding `C[C@@H](NCCCc1cccc(C(F)(F)F)c1)c1cccc2ccccc12` [Cinacalcet (IB)], the IC50 under setting [1] stood at 44.6 nM.
In the case of `COc1ccc(CCNCC(O)COc2cccc(C)c2)cc1OC` (racemic) [Bevantolol (IA), (RS)-[2-(3,4-dimethoxyphenyl)ethyl][2-hydroxy-3-(3-methylphenoxy)propyl]amine], the IC50 was determined as 42.8 nM under setting [1] and 63 nM (Experiment 2, read-out: IC50 (nM) Experiment 2).
Regarding `CC(COc1ccccc1)N(CCCl)Cc1ccccc1` (racemic) [Phenoxybenzamine (IC), (RS)—N-benzil-N-(2-chloroetyl)-1-phenoxy-propan-2-amine], the 50% inhibitory concentration (IC50) under setting [1] was 58.1 nM.
